Measured values from PubChem BioAssay AID248 (DTP/NCI, 2004).
Values joined by “and” are separate entries in the source; they are usually repeats but may differ in a detail not shown here. Identical values can stand only once. Inconclusive results and toxic doses are left out.

System: L1210 leukemia ip in BDF1 mice, survival T/C
Assay: NCI In Vivo Anticancer Drug Screen. Data for tumor model L1210 Leukemia (intraperitoneal) in B6D2F1 (BDF1) mice
Settings: endpoint: mean survival time, vehicle: saline, higher = longer survival
In short: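 Tumor cells were implanted, animals were treated, and survival was followed. The result divides the treated measurement by the vehicle-control measurement.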

With `CSc1ncnc2c1ncn2C1OC(CO)C(O)C1O` (stereo not drawn) the T/C (dose: 0.5 mg/kg/injection, schedule: Q#A X Z (ip)) was 120 % of control, the T/C (dose: 0.82 mg/kg/injection, schedule: Q07DX003 (ip)) was 107 % of control and the T/C (dose: 1.0 mg/kg/injection, schedule: Q01DX Z (ip)) was 113 % of control. For the same compound, the T/C (dose: 1.25 mg/kg/injection, schedule: Q06HX068 (ip)) was 123 % of control, the T/C (dose: 2.0 mg/kg/injection, schedule: Q01DX010 (ip)) was 109 % of control and 112 % of control and the T/C (dose: 2.0 mg/kg/injection, schedule: Q01DX Z (ip)) was 123 % of control. The T/C (dose: 3.25 mg/kg/injection, schedule: Q07DX003 (ip)) was 115 % of control, the T/C (dose: 4.0 mg/kg/injection, schedule: Q01DX006 (iv)) was 109 % of control and the T/C (dose: 4.0 mg/kg/injection, schedule: Q01DX010 (ip)) was 117 % of control. The T/C (dose: 4.0 mg/kg/injection, schedule: Q01DX Z (im)) was 117 % of control, the T/C (dose: 4.0 mg/kg/injection, schedule: Q01DX Z (sc)) was 102 % of control and the T/C (dose: 5.0 mg/kg/injection, schedule: Q01DX010 (ip)) was 113 % of control and 122 % of control. For the same compound, the T/C (dose: 5.0 mg/kg/injection, schedule: Q01DX017 (ip)) was 105 % of control, the T/C (dose: 5.0 mg/kg/injection, schedule: Q#A X034 (ip)) was 118 % of control and the T/C (dose: 6.5 mg/kg/injection, schedule: Q07DX003 (ip)) was 115 % of control and 121 % of control. For the same compound, the T/C (dose: 6.65 mg/kg/injection, schedule: Q#A X Z (ip)) was 151 % of control, the T/C (dose: 8.0 mg/kg/injection, schedule: Q01DX006 (iv)) was 105 % of control and the T/C (dose: 8.0 mg/kg/injection, schedule: Q01DX010 (ip)) was 118 % of control and 124 % of control. The T/C (dose: 8.0 mg/kg/injection, schedule: Q01DX Z (im)) was 115 % of control, the T/C (dose: 8.0 mg/kg/injection, schedule: Q01DX Z (sc)) was 113 % of control and the T/C (dose: 10.0 mg/kg/injection, schedule: Q12HX010 (ip)) was 119 % of control. The T/C (dose: 10.0 mg/kg/injection, schedule: Q## X032 (ip)) was 119 % of control, the T/C (dose: 12.5 mg/kg/injection, schedule: Q01DX010 (ip)) was 150 % of control and the T/C (dose: 13.0 mg/kg/injection, schedule: Q## X004 (ip)) was 114 % of control. The T/C (dose: 15.0 mg/kg/injection, schedule: Q01DX010 (ip)) was 152 % of control, the T/C (dose: 15.0 mg/kg/injection, schedule: Q01DX Z (oral)) was 119 % of control and the T/C (dose: 16.0 mg/kg/injection, schedule: Q01DX006 (iv)) was 112 % of control. For the same compound, the T/C (dose: 16.0 mg/kg/injection, schedule: Q01DX Z (sc)) was 115 % of control, the T/C (dose: 18.0 mg/kg/injection, schedule: Q01DX001 (ip)) was 104 % of control and 106 % of control and the T/C (dose: 20.0 mg/kg/injection, schedule: Q01DX015 (ip)) was 153 % of control. The T/C (dose: 20.0 mg/kg/injection, schedule: Q12HX006 (ip)) was 110 % of control, the T/C (dose: 20.0 mg/kg/injection, schedule: Q12HX010 (ip)) was 120 % of control and the T/C (dose: 20.0 mg/kg/injection, schedule: Q## X004 (ip)) was 121 % of control. For the same compound, the T/C (dose: 20.0 mg/kg/injection, schedule: Q#A X034 (ip)) was 103 % of control, the T/C (dose: 21.0 mg/kg/injection, schedule: Q## X015 (ip)) was 152 % of control and the T/C (dose: 22.0 mg/kg/injection, schedule: Q## X032 (ip)) was 124 % of control. For the same compound, the T/C (dose: 23.0 mg/kg/injection, schedule: Q03DX006 (ip)) was 113 % of control, the T/C (dose: 25.0 mg/kg/injection, schedule: Q01DX001 (ip)) was 122 % of control and 124 % of control and the T/C (dose: 25.0 mg/kg/injection, schedule: Q01DX005 (ip)) was 150 % of control. The T/C (dose: 26.0 mg/kg/injection, schedule: Q01DX001 (ip)) was 103 % of control, the T/C (dose: 27.0 mg/kg/injection, schedule: Q01DX001 (ip)) was 110 % of control and 120 % of control and the T/C (dose: 30.0 mg/kg/injection, schedule: Q01DX003 (ip)) was 151 % of control. The T/C (dose: 30.0 mg/kg/injection, schedule: Q01DX015 (ip)) was 153 % of control, the T/C (dose: 30.0 mg/kg/injection, schedule: Q## X004 (ip)) was 121 % of control and the T/C (dose: 31.0 mg/kg/injection, schedule: Q## X015 (ip)) was 152 % of control. The T/C (dose: 32.0 mg/kg/injection, schedule: Q01DX006 (iv)) was 115 % of control and 117 % of control, the T/C (dose: 32.0 mg/kg/injection, schedule: Q01DX Z (im)) was 153 % of control and the T/C (dose: 32.0 mg/kg/injection, schedule: Q01DX Z (ip)) was 102 % of control. For the same compound, the T/C (dose: 32.0 mg/kg/injection, schedule: Q01DX Z (sc)) was 151 % of control, the T/C (dose: 32.0 mg/kg/injection, schedule: Q## X015 (ip)) was 103 % of control and 115 % of control and the T/C (dose: 32.0 mg/kg/injection, schedule: Q## X032 (ip)) was 122 % of control. The T/C (dose: 38.0 mg/kg/injection, schedule: Q01DX015 (ip)) was 100 % of control, the T/C (dose: 39.5 mg/kg/injection, schedule: Q01DX015 (ip)) was 123 % of control and the T/C (dose: 39.5 mg/kg/injection, schedule: Q## X015 (ip)) was 123 % of control. For the same compound, the T/C (dose: 40.0 mg/kg/injection, schedule: Q01DX001 (ip)) was 107 % of control and 110 % of control and 112 % of control, the T/C (dose: 40.0 mg/kg/injection, schedule: Q01DX017 (ip)) was 108 % of control and the T/C (dose: 40.0 mg/kg/injection, schedule: Q12HX006 (ip)) was 120 % of control. For the same compound, the T/C (dose: 45.0 mg/kg/injection, schedule: Q01DX015 (ip)) was 102 % of control and 110 % of control, the T/C (dose: 45.0 mg/kg/injection, schedule: Q03DX006 (ip)) was 120 % of control and the T/C (dose: 47.0 mg/kg/injection, schedule: Q## X015 (ip)) was 98 % of control and 103 % of control. The T/C (dose: 50.0 mg/kg/injection, schedule: Q01DX001 (ip)) was 113 % of control and 122 % of control, the T/C (dose: 50.0 mg/kg/injection, schedule: Q01DX009 (ip)) was 102 % of control and the T/C (dose: 54.0 mg/kg/injection, schedule: Q01DX001 (ip)) was 120 % of control. For the same compound, the T/C (dose: 60.0 mg/kg/injection, schedule: Q01DX001 (ip)) was 115 % of control, the T/C (dose: 60.0 mg/kg/injection, schedule: Q01DX Z (oral)) was 119 % of control and the T/C (dose: 61.0 mg/kg/injection, schedule: Q01DX001 (ip)) was 116 % of control. The T/C (dose: 64.0 mg/kg/injection, schedule: Q01DX Z (im)) was 109 % of control, the T/C (dose: 64.0 mg/kg/injection, schedule: Q01DX Z (sc)) was 102 % of control and the T/C (dose: 80.0 mg/kg/injection, schedule: Q12HX010 (ip)) was 115 % of control. For the same compound, the T/C (dose: 90.0 mg/kg/injection, schedule: Q01DX001 (ip)) was 121 % of control, the T/C (dose: 90.0 mg/kg/injection, schedule: Q03DX006 (ip)) was 119 % of control and the T/C (dose: 91.0 mg/kg/injection, schedule: Q01DX001 (ip)) was 113 % of control. For the same compound, the T/C (dose: 100.0 mg/kg/injection, schedule: Q01DX001 (ip)) was 111 % of control, the T/C (dose: 100.0 mg/kg/injection, schedule: Q01DX003 (ip)) was 117 % of control and the T/C (dose: 100.0 mg/kg/injection, schedule: Q02DX008 (ip)) was 95 % of control. For the same compound, the T/C (dose: 105.0 mg/kg/injection, schedule: Q07DX003 (ip)) was 151 % of control and 152 % of control, the T/C (dose: 121.0 mg/kg/injection, schedule: Q01DX001 (ip)) was 119 % of control and the T/C (dose: 138.0 mg/kg/injection, schedule: Q01DX001 (ip)) was 152 % of control. The T/C (dose: 160.0 mg/kg/injection, schedule: Q12HX006 (ip)) was 113 % of control, the T/C (dose: 180.0 mg/kg/injection, schedule: Q03DX006 (ip)) was 105 % of control and the T/C (dose: 200.0 mg/kg/injection, schedule: Q01DX001 (ip)) was 103 % of control. For the same compound, the T/C (dose: 256.0 mg/kg/injection, schedule: Q01DX006 (iv)) was 94 % of control and the T/C (dose: 400.0 mg/kg/injection, schedule: Q01DX001 (ip)) was 100 % of control.
